Data on 30 compounds can be found in patent publication US11912693B2, “Compounds for modulating S1P1 activity and methods of using the same” (TREVENA, INC., priority 2017, dated 2024).

SMILES strings stand for the structures.

For test [1], the target named is T1, human sphingosine-1-phosphate receptor 1 (S1P1) (Homo sapiens (Human), UniProt P21453). Briefly: Inhibition of cAMP production (HTRF cAMP HiRange), S1P1 CHO-K1 cells. The test is classed as cell-based. Particulars: for hS1P1 cAMP pEC50: inhibition of cAMP production, S1P1 CHO-K1 cells; for Emax: CHO-K1, efficacy (SPAN) normalized to fingolimod, read-out: hS1P1 cAMP SPAN. An outline of the steps:
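CHO-K1 cells stably co-expressing human S1P1 (C-terminal Prolink tag) and EA-β-arrestin2 were grown in AssayComplete Media 6 at 37° C. and 5% CO2, plated, and incubated overnight. Agonist-driven inhibition of intracellular cAMP was read by TR-FRET with the HTRF cAMP HiRange kit on a PheraStar reader. Potency is pEC50, and efficacy (SPAN) is normalized to fingolimod.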
(Cyclic AMP is a second messenger, typically raised through Gs and lowered through Gi signalling.)
Target sequence in this assay (P21453 whole entry, looked up): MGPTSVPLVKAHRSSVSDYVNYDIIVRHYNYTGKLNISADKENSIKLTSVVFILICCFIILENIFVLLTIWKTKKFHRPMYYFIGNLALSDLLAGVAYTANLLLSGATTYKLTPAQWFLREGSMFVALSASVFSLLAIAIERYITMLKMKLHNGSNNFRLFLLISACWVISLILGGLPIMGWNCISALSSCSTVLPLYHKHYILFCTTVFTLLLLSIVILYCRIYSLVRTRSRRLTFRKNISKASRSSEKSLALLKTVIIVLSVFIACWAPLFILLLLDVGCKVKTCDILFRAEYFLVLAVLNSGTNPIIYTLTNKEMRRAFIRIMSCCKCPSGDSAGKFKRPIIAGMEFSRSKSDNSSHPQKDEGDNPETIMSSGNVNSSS

The target in test [2] is T1, human sphingosine-1-phosphate receptor 1 (S1P1). Briefly: β-Arrestin2 recruitment assay (PathHunter), S1P1 CHO-K1 cells. The test is classed as cell-based. Particulars: for hS1P1 B-arrestin2 pEC50: β-arrestin2 recruitment, S1P1 CHO-K1 cells; for Emax: CHO-K1, efficacy (SPAN) normalized to fingolimod, read-out: hS1P1 B-arrestin2 SPAN. An outline of the steps:
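Enzyme-fragment complementation read-out: agonist-driven β-arrestin2 binding to ProLink-tagged human S1P1 in stable CHO-K1 cells restores β-galactosidase, measured 1 h at room temperature after a 60 min 37° C. compound incubation. Potency as pEC50, efficacy relative to fingolimod (SPAN).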
Target sequence in this assay (P21453 whole entry, looked up): as above
Target sequence in this assay (P32121 whole entry partner, looked up): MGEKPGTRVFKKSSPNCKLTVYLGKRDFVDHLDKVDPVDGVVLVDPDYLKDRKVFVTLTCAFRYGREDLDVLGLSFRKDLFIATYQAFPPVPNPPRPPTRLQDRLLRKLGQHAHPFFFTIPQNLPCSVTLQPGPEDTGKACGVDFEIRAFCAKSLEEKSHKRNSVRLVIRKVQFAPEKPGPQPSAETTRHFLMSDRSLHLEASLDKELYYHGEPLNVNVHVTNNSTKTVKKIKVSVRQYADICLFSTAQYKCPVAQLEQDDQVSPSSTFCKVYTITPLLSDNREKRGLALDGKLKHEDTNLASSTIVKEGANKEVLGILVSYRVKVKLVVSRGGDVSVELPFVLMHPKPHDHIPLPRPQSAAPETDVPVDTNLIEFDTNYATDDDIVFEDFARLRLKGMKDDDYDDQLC
Background: Arrestin recruitment assays detect the binding of arrestin to an activated receptor.

As for `CC(C)n1ccc2cc(-c3noc(-c4ccccc4C(F)(F)F)n3)ccc21` [Compound 390, 3-(1-isopropyl-1H-indol-5-yl)-5-(2-(trifluoromethyl)phenyl)-1,2,4-oxadiazole], the “hS1P1 cAMP pEC50” value in test [1] was greater than 6.5. Also, the “hS1P1 B-arrestin2 pEC50” value in test [2] is reported as greater than 5.
Take `COc1cccc(-c2nc(-c3ccc4c(ccn4C(C)C)c3)no2)c1` [Compound 392, 3-(1-isopropyl-1H-indol-5-yl)-5-(3-methoxyphenyl)-1,2,4-oxadiazole]: in test [1], the “hS1P1 cAMP pEC50” value is less than 6.5. The “hS1P1 B-arrestin2 pEC50” value in test [2] is given as less than 5.
The matching figures for `COc1ccc(-c2nc(-c3ccc4c(ccn4C(C)C)c3)no2)cc1` [Compound 393, 3-(1-isopropyl-1H-indol-5-yl)-5-(4-methoxyphenyl)-1,2,4-oxadiazole]: less than 6.5 and less than 5.
The matching figures for `CC(C)n1ccc2cc(-c3noc(-c4cccc(F)c4)n3)ccc21` [Compound 394, 5-(3-fluorophenyl)-3-(1-isopropyl-1H-indol-5-yl)-1,2,4-oxadiazole]: less than 6.5 and greater than 5.
For the compound `CC(C)n1ccc2cc(-c3noc(-c4ccncc4)n3)ccc21` [Compound 395, 3-(1-isopropyl-1H-indol-5-yl)-5-(pyridin-4-yl)-1,2,4-oxadiazole], the “hS1P1 cAMP pEC50” value in test [1] is greater than 6.5. Also, in test [2], the “hS1P1 B-arrestin2 pEC50” value is greater than 5.
On the same counts, the results for `CC(C)n1ccc2cc(-c3noc(-c4cccnc4)n3)ccc21` [Compound 396, 3-(1-isopropyl-1H-indol-5-yl)-5-(pyridin-3-yl)-1,2,4-oxadiazole] are less than 6.5 and less than 5.
Turning to `CC(C)n1ccc2cc(-c3noc(-c4ccccn4)n3)ccc21` [Compound 397, 3-(1-isopropyl-1H-indol-5-yl)-5-(pyridin-2-yl)-1,2,4-oxadiazole], the “hS1P1 cAMP pEC50” value in test [1] is listed as less than 6.5. Further, in test [2], the “hS1P1 B-arrestin2 pEC50” value is listed as less than 5.
On to `CC(C)n1ccc2cc(-c3noc(-c4ccncc4F)n3)ccc21` [Compound 399, 5-(3-fluoropyridin-4-yl)-3-(1-isopropyl-1H-indol-5-yl)-1,2,4-oxadiazole], for which, in test [1], the “hS1P1 cAMP pEC50” value is reported as greater than 6.5. Besides, the “hS1P1 B-arrestin2 pEC50” value in test [2] is recorded as greater than 5.
`CC(C)n1ccc2cc(-c3noc(-c4ccc(F)cc4)n3)ccc21` [Compound 400, 5-(4-fluorophenyl)-3-(1-isopropyl-1H-indol-5-yl)-1,2,4-oxadiazole]: the “hS1P1 cAMP pEC50” value in test [1] was less than 6.5. For the same compound, the “hS1P1 B-arrestin2 pEC50” value in test [2] is less than 5.
On to `COc1ccccc1-c1csc(-c2cnc3c(ccn3C(C)C)c2)n1` [Compound 401, 2-(1-isopropyl-1H-pyrrolo[2,3-b]pyridin-5-yl)-4-(2-methoxyphenyl)thiazole], for which, in test [1], the “hS1P1 cAMP pEC50” value is reported as less than 6.5. In addition, the “hS1P1 B-arrestin2 pEC50” value in test [2] was less than 5.
As to `CC(C)n1ccc2cc(-c3nc(-c4ccccc4F)cs3)cnc21` [Compound 402, 4-(2-fluorophenyl)-2-(1-isopropyl-1H-pyrrolo[2,3-b]pyridin-5-yl)thiazole], the “hS1P1 cAMP pEC50” value in test [1] is listed as greater than 6.5. For the same compound, the “hS1P1 B-arrestin2 pEC50” value in test [2] is listed as less than 5.
On to `CC(C)n1ccc2cc(-c3nc(-c4ccccc4F)cs3)ccc21` [Compound 403, 4-(2-fluorophenyl)-2-(1-isopropylindol-5-yl)thiazole], for which, in test [1], the Emax is less than 75% and the “hS1P1 cAMP pEC50” value is listed as less than 6.5. Besides, in test [2], the Emax is less than 75% and the “hS1P1 B-arrestin2 pEC50” value is reported as less than 5.
Regarding `CC(C)n1ccc2cc(-c3nc(-c4ccccc4C(F)(F)F)cs3)ccc21` [Compound 404, 2-(1-isopropylindol-5-yl)-4-[2-(trifluoromethyl)phenyl]thiazole], in test [1], the Emax was greater than 75% and the “hS1P1 cAMP pEC50” value is recorded as less than 6.5. Besides, in test [2], the Emax is less than 75% and the “hS1P1 B-arrestin2 pEC50” value was less than 5.
With `COc1cccc(-c2csc(-c3ccc4c(ccn4C(C)C)c3)n2)c1` [Compound 405, 2-(1-isopropylindol-5-yl)-4-(3-methoxyphenyl)thiazole], the “hS1P1 cAMP pEC50” value in test [1] is less than 6.5. In addition, in test [2], the “hS1P1 B-arrestin2 pEC50” value was less than 5.
On the same counts, the results for `Cc1ccccc1-c1csc(-c2cnc3c(ccn3C(C)C)c2)n1` [Compound 407, 2-(1-isopropylpyrrolo[2,3-b]pyridin-5-yl)-4-(o-tolyl)thiazole] are less than 6.5 and less than 5.
On the same counts, the results for `CC(C)n1ccc2cc(-c3nc(-c4ccccc4C(F)(F)F)cs3)cnc21` [Compound 408, 2-(1-isopropylpyrrolo[2,3-b]pyridin-5-yl)-4-[2-(trifluoromethyl)phenyl]thiazole] are less than 6.5 and less than 5.
On to `Cc1ccccc1-c1csc(-c2ccc3c(ccn3C(C)C)n2)n1` [Compound 409, 2-(1-isopropylpyrrolo[3,2-b]pyridin-5-yl)-4-(o-tolyl)thiazole], for which the “hS1P1 cAMP pEC50” value in test [1] is less than 6.5. Further, the “hS1P1 B-arrestin2 pEC50” value in test [2] is on record as less than 5.
As to `COc1cccc(-c2csc(-c3ccc4c(ccn4C(C)C)n3)n2)c1` [Compound 410, 2-(1-isopropylpyrrolo[3,2-b]pyridin-5-yl)-4-(3-methoxyphenyl)thiazole], the “hS1P1 cAMP pEC50” value in test [1] is less than 6.5. Moreover, in test [2], the “hS1P1 B-arrestin2 pEC50” value is less than 5.
On to `COc1ccccc1-c1csc(-c2ccc3c(ccn3C(C)C)n2)n1` [Compound 411, 2-(1-isopropyl-1H-pyrrolo[3,2-b]pyridin-5-yl)-4-(2-methoxyphenyl)thiazole], for which the “hS1P1 cAMP pEC50” value in test [1] is reported as less than 6.5. Besides, in test [2], the “hS1P1 B-arrestin2 pEC50” value is less than 5.
Consider `CC(C)n1ccc2nc(-c3nc(-c4ccccc4Br)cs3)ccc21` [Compound 412, 4-(2-bromophenyl)-2-(1-isopropyl-1H-pyrrolo[3,2-b]pyridin-5-yl)thiazole], for which the “hS1P1 cAMP pEC50” value in test [1] was less than 6.5. In addition, in test [2], the “hS1P1 B-arrestin2 pEC50” value is less than 5.
The matching figures for `CC(C)n1nnc2cc(-c3nc(-c4ccccc4Br)no3)cnc21` [Compound 413, 3-(2-bromophenyl)-5-[3-(propan-2-yl)-3H-[1,2,3]triazolo[4,5-b]pyridin-6-yl]-1,2,4-oxadiazole]: greater than 6.5 and greater than 5.
The matching figures for `Cc1ccncc1-c1noc(-c2cnc3c(c2)nnn3C(C)C)n1` [Compound 414, 4-methyl-3-{5-[3-(propan-2-yl)-3H-[1,2,3]triazolo[4,5-b]pyridin-6-yl]-1,2,4-oxadiazol-3-yl}pyridine]: greater than 6.5 and less than 5.
As to `CCC1(CC)CC(=O)c2cc(-c3nc(-c4ccc5c(c4)CC(=O)N5)no3)ccc2O1` [Compound 416, 5-(5-(2,2-diethyl-4-oxochroman-6-yl)-1,2,4-oxadiazol-3-yl)indolin-2-one], in test [1], the “hS1P1 cAMP pEC50” value is on record as greater than 6.5. For the same compound, in test [2], the “hS1P1 B-arrestin2 pEC50” value was greater than 5.
Take `Cc1cccc2oc(-c3ccc4c(c3)nnn4C(C)C)nc12` [Compound 418, 2-(1-isopropyl-1H-benzo[d][1,2,3]triazol-5-yl)-4-methylbenzo[d]oxazole]: in test [1], the Emax was greater than 75% and the “hS1P1 cAMP pEC50” value is given as greater than 6.5. Besides, in test [2], the Emax is greater than 75% and the “hS1P1 B-arrestin2 pEC50” value was greater than 5.
With `Cc1ccc2oc(-c3ccc4c(c3)nnn4C(C)C)nc2c1` [Compound 419, 2-(1-isopropyl-1H-benzo[d][1,2,3]triazol-5-yl)-5-methylbenzo[d]oxazole], in test [1], the Emax was greater than 75% and the “hS1P1 cAMP pEC50” value is greater than 6.5. In test [2], the Emax is less than 75% and the “hS1P1 B-arrestin2 pEC50” value is on record as greater than 5.
For `Cc1ccc2nc(-c3ccc4c(c3)nnn4C(C)C)oc2c1` [Compound 420, 2-(1-isopropyl-1H-benzo[d][1,2,3]triazol-5-yl)-6-methylbenzo[d]oxazole], in test [1], the Emax is greater than 75% and the “hS1P1 cAMP pEC50” value is greater than 6.5. In test [2], the Emax is greater than 75% and the “hS1P1 B-arrestin2 pEC50” value is given as less than 5.
As to `Cc1cccc2nc(-c3ccc4c(c3)nnn4C(C)C)oc12` [Compound 421, 2-(1-isopropyl-1H-benzo[d][1,2,3]triazol-5-yl)-7-methylbenzo[d]oxazole], in test [1], the Emax is greater than 75% and the “hS1P1 cAMP pEC50” value is listed as less than 6.5. In test [2], the Emax is less than 75% and the “hS1P1 B-arrestin2 pEC50” value is given as less than 5.
Take `COc1cccc2oc(-c3ccc4c(c3)nnn4C(C)C)nc12` [Compound 424, 2-(1-isopropyl-1H-benzo[d][1,2,3]triazol-5-yl)-4-methoxybenzo[d]oxazole]: in test [1], the Emax is greater than 75% and the “hS1P1 cAMP pEC50” value was greater than 6.5. In test [2], the Emax is greater than 75% and the “hS1P1 B-arrestin2 pEC50” value is listed as less than 5.
As to `COc1ccc2nc(-c3ccc4c(c3)nnn4C(C)C)oc2c1` [Compound 426, 2-(1-isopropyl-1H-benzo[d][1,2,3]triazol-5-yl)-6-methoxybenzo[d]oxazole], in test [1], the Emax is greater than 75% and the “hS1P1 cAMP pEC50” value is recorded as greater than 6.5. For the same compound, in test [2], the Emax is greater than 75% and the “hS1P1 B-arrestin2 pEC50” value is less than 5.
For `CC(C)n1nnc2cc(-c3nc4c(Cl)cccc4o3)ccc21` [Compound 427, 4-chloro-2-(1-isopropyl-1H-benzo[d][1,2,3]triazol-5-yl)benzo[d]oxazole], in test [1], the Emax is greater than 75% and the “hS1P1 cAMP pEC50” value is given as less than 6.5. For the same compound, in test [2], the Emax was greater than 75% and the “hS1P1 B-arrestin2 pEC50” value is less than 5.
